This is an account of results in ChEMBL document CHEMBL1150351, “Design, synthesis, and biological evaluation of new-generation taxoids” (J Med Chem, 2008).

Test [1] in a line: Cytotoxicity against Pgp deficient human LCC6 cells after 72 hrs by sulforhodamine B test. The test is classed as functional, cell-based. The settings on record: C6, 72 h. A general note: In SRB staining, fixed cells bind dye roughly in proportion to their protein.
Test [2] in a line: Cytotoxicity against multidrug resistant Pgp expressing human LCC6 cells after 72 hrs by sulforhodamine B test. The test is classed as functional, cell-based. The following applies: LCC-6, 72 h.
The test system of test [3] is C6. The test can be described thus: Resistance index, Ratio of IC50 for multidrug resistant Pgp expressing human LCC6 cells to IC50 for Pgp deficient human LCC6 cells. On the set-up: reference not given here. Type of test: functional.
Test [4] deals with MCF7. The test can be described thus: Cytotoxicity against Pgp deficient human MCF7 cells after 72 hrs by sulforhodamine B test. Type of test: functional, cell-based. The following applies: MCF7, 72 h.
Test [5] can be described thus: Cytotoxicity against multidrug resistant Pgp expressing human NCI/ADR cells after 72 hrs by sulforhodamine B test. The following applies: NCI/ADR-RES. Type of test: functional, cell-based.
For test [6], the system named is MCF7. The test can be described thus: Resistance index, Ratio of IC50 for multidrug resistant Pgp expressing human NCI/ADR cells to IC50 for Pgp deficient human MCF7 cells. The test is classed as functional. Also on record: reference not given here.

Each structure is given as a SMILES string.

As for `CCC(=O)O[C@H]1C(=O)[C@@]2(C)[C@H]([C@H](OC(=O)c3ccccc3)[C@]3(O)C[C@H](OC(=O)[C@H](O)[C@H](C=C(C)C)NC(=O)C4CCCCC4)C(C)=C1C3(C)C)[C@]1(OC(C)=O)CO[C@@H]1C[C@@H]2O`, the IC50 (commonly the point on the concentration scale where inhibition reaches its midpoint) in test [1] stood at 1.3 nM; in test [2] it was 13 nM; in test [4] it was 1 nM; in test [5], 18 nM. Also, the “Ratio IC50” value in test [3] amounted to 10; in test [6], 18.
For `CCC(=O)O[C@H]1C(=O)[C@@]2(C)[C@H]([C@H](OC(=O)c3ccccc3)[C@]3(O)C[C@H](OC(=O)[C@H](O)[C@H](C=C(C)C)NC(=O)C4CCC4)C(C)=C1C3(C)C)[C@]1(OC(C)=O)CO[C@@H]1C[C@@H]2O`, the IC50 in test [1] worked out at 1.3 nM; in test [2] it was 34 nM; in test [4], 1.2 nM; in test [5], 41 nM. For the same compound, the “Ratio IC50” value is given as 26 in test [3] and 34 in test [6].
Consider `CCC(=O)O[C@H]1C(=O)[C@@]2(C)[C@H]([C@H](OC(=O)c3cccc(OC)c3)[C@]3(O)C[C@H](OC(=O)[C@H](O)[C@H](C=C(C)C)NC(=O)C4CCCC4)C(C)=C1C3(C)C)[C@]1(OC(C)=O)CO[C@@H]1C[C@@H]2O`, for which the half-maximal inhibitory concentration (IC50) in test [1] was 1.1 nM; in test [2] it was 11 nM; in test [4], 0.3 nM; in test [5], 9.5 nM. The “Ratio IC50” value worked out at 10 in test [3] and 32 in test [6].
Consider `CCC(=O)O[C@H]1C(=O)[C@@]2(C)[C@H]([C@H](OC(=O)c3cccc(OC)c3)[C@]3(O)C[C@H](OC(=O)[C@H](O)[C@H](C=C(C)C)NC(=O)OC4CCCCC4)C(C)=C1C3(C)C)[C@]1(OC(C)=O)CO[C@@H]1C[C@@H]2O`, for which the half-inhibitory concentration (IC50) in test [1] was 1.23 nM; in test [2], 14.8 nM; in test [4], 1.44 nM; in test [5] it was 14 nM. Besides, the “Ratio IC50” value came to 12 in test [3] and 9.7 in test [6].
Regarding `CCC(=O)O[C@H]1C(=O)[C@@]2(C)[C@H]([C@H](OC(=O)c3ccccc3)[C@]3(O)C[C@H](OC(=O)[C@H](O)[C@H](C=C(C)C)NC(=O)C4CCCC4)C(C)=C1C3(C)C)[C@]1(OC(C)=O)CO[C@@H]1C[C@@H]2O`, the half-inhibitory concentration (IC50) in test [1] is 1.1 nM; in test [2] it was 19 nM; in test [4], 1.1 nM; in test [5], 22 nM. Also, the “Ratio IC50” value in test [3] is recorded as 17; in test [6] it was 20.
Turning to `COc1cccc(C(=O)O[C@H]2[C@@H]3[C@]4(OC(C)=O)CO[C@@H]4C[C@H](O)[C@@]3(C)C(=O)[C@H](OC(=O)OCc3ccccc3)C3=C(C)[C@@H](OC(=O)[C@H](O)[C@H](C=C(C)C)NC(=O)OC(C)(C)C)C[C@]2(O)C3(C)C)c1`, the IC50 in test [1] is 1.2 nM; in test [2], 1.8 nM; in test [4], 0.2 nM; in test [5] it was 1.5 nM. For the same compound, the “Ratio IC50” value in test [3] is 1.5; in test [6], 7.5.
In the case of `CCC(=O)O[C@H]1C(=O)[C@@]2(C)[C@H]([C@H](OC(=O)c3cccc(OC)c3)[C@]3(O)C[C@H](OC(=O)[C@H](O)[C@H](CC(C)C)NC(=O)OC4CCCC4)C(C)=C1C3(C)C)[C@]1(OC(C)=O)CO[C@@H]1C[C@@H]2O`, the IC50 in test [1] stood at 0.76 nM; in test [2], 2.6 nM; in test [4], 0.17 nM; in test [5], 1.18 nM. For the same compound, the “Ratio IC50” value in test [3] was found to be 3.4; in test [6], 6.9.
As for `CCC(=O)O[C@H]1C(=O)[C@@]2(C)[C@H]([C@H](OC(=O)c3ccccc3)[C@]3(O)C[C@H](OC(=O)[C@H](O)[C@H](CC(C)C)NC(=O)C4CCCCC4)C(C)=C1C3(C)C)[C@]1(OC(C)=O)CO[C@@H]1C[C@@H]2O`, the IC50 in test [1] came out at 5.8 nM; in test [2] it was 32 nM; in test [4], 1.5 nM; in test [5], 19 nM. The Ratio IC50 came out at 5.5 in test [3] and 13 in test [6].
With `CCC(=O)O[C@H]1C(=O)[C@@]2(C)[C@H]([C@H](OC(=O)c3cccc(OC)c3)[C@]3(O)C[C@H](OC(=O)[C@H](O)[C@H](C=C(C)C)NC(=O)C4CC4)C(C)=C1C3(C)C)[C@]1(OC(C)=O)CO[C@@H]1C[C@@H]2O`, the concentration for half-maximal inhibition (IC50) in test [1] worked out at 1.1 nM; in test [2], 17.2 nM; in test [4] it was 0.5 nM; in test [5], 7.8 nM. Besides, the “Ratio IC50” value in test [3] was determined as 16; in test [6], 15.6.
Regarding `CCC(=O)O[C@H]1C(=O)[C@@]2(C)[C@H]([C@H](OC(=O)c3ccccc3)[C@]3(O)C[C@H](OC(=O)[C@H](O)[C@H](CC(C)C)NC(=O)C4CCCC4)C(C)=C1C3(C)C)[C@]1(OC(C)=O)CO[C@@H]1C[C@@H]2O`, the 50% inhibitory concentration (IC50) in test [1] stood at 6.3 nM; in test [2], 64 nM; in test [4], 2.3 nM; in test [5] it was 29 nM. Further, the “Ratio IC50” value in test [3] came to 10; in test [6], 12.
As for `CCC(=O)O[C@H]1C(=O)[C@@]2(C)[C@H]([C@H](OC(=O)c3ccccc3)[C@]3(O)C[C@H](OC(=O)[C@H](O)[C@H](C=C(C)C)NC(=O)C4=CCCCC4)C(C)=C1C3(C)C)[C@]1(OC(C)=O)CO[C@@H]1C[C@@H]2O`, the 50% inhibitory concentration (IC50) worked out at 1.2 nM in test [1], 11 nM in test [2], 0.3 nM in test [4] and 3.8 nM in test [5]. The figures for the “Ratio IC50” value in test [3] and in test [6] were 9.2 and 13, respectively.
In the case of `CCC(=O)O[C@H]1C(=O)[C@@]2(C)[C@H]([C@H](OC(=O)c3ccccc3)[C@]3(O)C[C@H](OC(=O)[C@H](O)[C@H](C=C(C)C)NC(=O)OC4CCCCC4)C(C)=C1C3(C)C)[C@]1(OC(C)=O)CO[C@@H]1C[C@@H]2O`, the IC50 in test [1] was found to be 1.2 nM; in test [2] it was 15 nM; in test [4], 1.4 nM; in test [5], 8.9 nM. Moreover, the “Ratio IC50” value in test [3] worked out at 13; in test [6], 6.4.
Regarding `CCC(=O)O[C@H]1C(=O)[C@@]2(C)[C@H]([C@H](OC(=O)c3cccc(OC)c3)[C@]3(O)C[C@H](OC(=O)[C@H](O)[C@H](C=C(C)C)NC(=O)C4CCC4)C(C)=C1C3(C)C)[C@]1(OC(C)=O)CO[C@@H]1C[C@@H]2O`, the concentration for half-maximal inhibition (IC50) was 1.6 nM in test [1], 15 nM in test [2], 0.8 nM in test [4] and 8.8 nM in test [5]. The “Ratio IC50” value in test [3] was determined as 9.4; in test [6], 11.
Consider `CCC(=O)O[C@H]1C(=O)[C@@]2(C)[C@H]([C@H](OC(=O)c3ccccc3)[C@]3(O)C[C@H](OC(=O)[C@H](O)[C@H](CC(C)C)NC(=O)OC4CCCC4)C(C)=C1C3(C)C)[C@]1(OC(C)=O)CO[C@@H]1C[C@@H]2O`, for which the IC50 in test [1] was determined as 2.6 nM; in test [2], 14 nM; in test [4], 1.3 nM; in test [5] it was 8.8 nM. For the same compound, the “Ratio IC50” value in test [3] amounted to 5.4; in test [6] it was 6.8.
On to `CCC(=O)O[C@H]1C(=O)[C@@]2(C)[C@H]([C@H](OC(=O)c3ccccc3)[C@]3(O)C[C@H](OC(=O)[C@H](O)[C@H](CC(C)C)NC(=O)OC(C)(C)C)C(C)=C1C3(C)C)[C@]1(OC(C)=O)CO[C@@H]1C[C@@H]2O`, for which, in test [5], the IC50 stood at 5.1 nM. For the same compound, in test [6], the “Ratio IC50” value is given as 15.
Consider `CCC(=O)O[C@H]1C(=O)[C@@]2(C)[C@H]([C@H](OC(=O)c3ccccc3)[C@]3(O)C[C@H](OC(=O)[C@H](O)[C@H](CC(C)C)NC(=O)OC4CCCCC4)C(C)=C1C3(C)C)[C@]1(OC(C)=O)CO[C@@H]1C[C@@H]2O`, for which the IC50 is 4.8 nM in test [1], 18 nM in test [2], 1.4 nM in test [4] and 14 nM in test [5]. Moreover, the “Ratio IC50” value in test [3] turned out to be 3.8; in test [6], 10.
Regarding `CCC(=O)O[C@H]1C(=O)[C@@]2(C)[C@H]([C@H](OC(=O)c3cccc(OC)c3)[C@]3(O)C[C@H](OC(=O)[C@H](O)[C@H](CC(C)C)NC(=O)C4CC4)C(C)=C1C3(C)C)[C@]1(OC(C)=O)CO[C@@H]1C[C@@H]2O`, the 50% inhibitory concentration (IC50) in test [1] is 0.6 nM; in test [2], 13 nM; in test [4], 0.4 nM; in test [5], 11.8 nM. Besides, the results for the “Ratio IC50” value in test [3] and in test [6] were 22 and 30, respectively.
With `CCC(=O)O[C@H]1C(=O)[C@@]2(C)[C@H]([C@H](OC(=O)c3cccc(OC)c3)[C@]3(O)C[C@H](OC(=O)[C@H](O)[C@H](CC(C)C)NC(=O)C4CCCCC4)C(C)=C1C3(C)C)[C@]1(OC(C)=O)CO[C@@H]1C[C@@H]2O`, the half-maximal inhibitory concentration (IC50) in test [1] was found to be 1 nM; in test [2], 12 nM; in test [4], 0.7 nM; in test [5], 6.5 nM. In addition, the “Ratio IC50” value in test [3] is listed as 12; in test [6], 9.3.
Take `COc1cccc(C(=O)O[C@H]2[C@@H]3[C@]4(OC(C)=O)CO[C@@H]4C[C@H](O)[C@@]3(C)C(=O)[C@H](OC(=O)c3ccccc3OC)C3=C(C)[C@@H](OC(=O)[C@H](O)[C@H](C=C(C)C)NC(=O)OC(C)(C)C)C[C@]2(O)C3(C)C)c1`: the IC50 was 0.4 nM in test [1], 0.9 nM in test [2], 1.1 nM in test [4] and 3.3 nM in test [5]. Also, the “Ratio IC50” value in test [3] was found to be 2.3; in test [6], 3.
On to `CCC(=O)O[C@H]1C(=O)[C@@]2(C)[C@H]([C@H](OC(=O)c3ccccc3)[C@]3(O)C[C@H](OC(=O)[C@H](O)[C@H](C=C(C)C)NC(=O)OC(C)(C)C)C(C)=C1C3(C)C)[C@]1(OC(C)=O)CO[C@@H]1C[C@@H]2O`, for which, in test [5], the midpoint of inhibition, the IC50, lay at 4 nM. The “Ratio IC50” value in test [6] is on record as 22.
